Among the data in ChEMBL document CHEMBL1155567, “Three new toxic norditerpenoid alkaloids from the low larkspur Delphinium nuttallianum” (J Nat Prod, 2000) are LD50 values, retold here.

The series can be described thus: Toxicity in iv dosed 24 hrs fasted Swiss-Webster mouse. The series is classed as organism-based. As to conditions: in vivo.

Structures are written as SMILES.

Regarding `CCN1C[C@]2(COC(=O)c3ccccc3N3C(=O)C[C@H](C)C3=O)CC[C@H](OC)[C@]34C5C[C@@H]6[C@@H](OC(C)=O)C[C@@](O)(C5[C@H]6O)[C@@](O)([C@H]13)[C@@H](OC)C24` (stereo partly drawn), the median lethal dose (LD50) is 5.7 mg/kg. With `CCN1C[C@]2(COC(=O)c3ccccc3N3C(=O)C[C@H](C)C3=O)CC[C@H](OC)[C@]34C5C[C@@H]6[C@@H](OC(C)=O)C[C@@](O)(C5[C@H]6OC(C)=O)[C@@](O)([C@H]13)[C@@H](OC)C24` (stereo partly drawn) the figure was 3.3 mg/kg; with `CCN1C[C@]2(COC(=O)c3ccccc3N3C(=O)C[C@H](C)C3=O)CC[C@H](OC)[C@]34C5C[C@@H]6[C@@H](OC(C)=O)C[C@@](O)(C5[C@H]6OC)[C@@](O)([C@H]13)[C@@H](OC)C24` (stereo partly drawn) [GEYERLINE], 6.2 mg/kg.

One may read the LD50 as the dose expected to kill half of the subjects tested.
